# Publication PMC4042408 (ACS chemical biology, 2013)
# Assays:
# [1] = test system: serine hydrolases; assay: Competitive ABPP-MudPIT of brain and peripheral tissues; assay type: in vivo, mouse
# [2] = biological target: T1, HSL (Mus musculus, UniProt P54310); assay: Gel-based competitive ABPP; assay type: biochemical
# T1 sequence (P54310 1-759): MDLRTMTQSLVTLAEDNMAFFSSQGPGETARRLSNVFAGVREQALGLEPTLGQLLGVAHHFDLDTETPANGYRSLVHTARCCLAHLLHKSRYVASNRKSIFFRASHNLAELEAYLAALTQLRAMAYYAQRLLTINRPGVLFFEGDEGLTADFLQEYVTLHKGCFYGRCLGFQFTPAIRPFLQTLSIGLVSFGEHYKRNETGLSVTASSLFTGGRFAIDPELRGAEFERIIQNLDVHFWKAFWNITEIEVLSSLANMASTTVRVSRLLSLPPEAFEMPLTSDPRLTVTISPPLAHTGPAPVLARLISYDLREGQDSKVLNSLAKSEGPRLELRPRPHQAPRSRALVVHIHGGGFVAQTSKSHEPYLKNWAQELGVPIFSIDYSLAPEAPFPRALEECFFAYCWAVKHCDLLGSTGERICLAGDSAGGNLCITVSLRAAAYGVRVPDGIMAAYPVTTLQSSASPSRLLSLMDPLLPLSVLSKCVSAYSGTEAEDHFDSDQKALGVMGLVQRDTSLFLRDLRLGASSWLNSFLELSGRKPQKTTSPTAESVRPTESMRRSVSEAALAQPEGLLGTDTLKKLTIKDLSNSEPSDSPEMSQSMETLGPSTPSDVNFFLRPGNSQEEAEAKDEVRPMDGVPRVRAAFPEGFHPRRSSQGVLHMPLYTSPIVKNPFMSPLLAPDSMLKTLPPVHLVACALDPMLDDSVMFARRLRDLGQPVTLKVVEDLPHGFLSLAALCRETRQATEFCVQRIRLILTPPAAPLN
# [3] = biological target: T2, CES1 (Mus musculus, UniProt Q8VCC2); assay: Gel-based competitive ABPP; assay type: biochemical
# T2 sequence (Q8VCC2 19-565): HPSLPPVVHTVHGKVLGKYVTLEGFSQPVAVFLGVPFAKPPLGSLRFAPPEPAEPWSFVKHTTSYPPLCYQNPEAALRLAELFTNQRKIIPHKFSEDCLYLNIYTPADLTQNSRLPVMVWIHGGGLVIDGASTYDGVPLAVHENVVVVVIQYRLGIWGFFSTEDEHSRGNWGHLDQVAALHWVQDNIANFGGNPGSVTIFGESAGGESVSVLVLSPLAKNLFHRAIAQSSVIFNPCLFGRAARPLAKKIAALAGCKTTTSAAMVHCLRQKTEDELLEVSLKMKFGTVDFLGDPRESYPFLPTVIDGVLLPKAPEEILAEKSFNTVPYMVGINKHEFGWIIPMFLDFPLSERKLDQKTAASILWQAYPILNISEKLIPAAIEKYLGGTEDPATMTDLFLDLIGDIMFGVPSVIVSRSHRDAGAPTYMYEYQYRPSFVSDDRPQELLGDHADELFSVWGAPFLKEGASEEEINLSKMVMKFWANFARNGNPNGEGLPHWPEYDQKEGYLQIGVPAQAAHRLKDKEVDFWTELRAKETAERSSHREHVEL
# [4] = biological target: CES2; assay: Gel-based competitive ABPP; assay type: biochemical
# [5] = biological target: T3, APEH (Mus musculus, UniProt Q8R146); assay: Gel-based competitive ABPP; assay type: biochemical; settings: mouse brain proteome
# T3 sequence (Q8R146 1-732): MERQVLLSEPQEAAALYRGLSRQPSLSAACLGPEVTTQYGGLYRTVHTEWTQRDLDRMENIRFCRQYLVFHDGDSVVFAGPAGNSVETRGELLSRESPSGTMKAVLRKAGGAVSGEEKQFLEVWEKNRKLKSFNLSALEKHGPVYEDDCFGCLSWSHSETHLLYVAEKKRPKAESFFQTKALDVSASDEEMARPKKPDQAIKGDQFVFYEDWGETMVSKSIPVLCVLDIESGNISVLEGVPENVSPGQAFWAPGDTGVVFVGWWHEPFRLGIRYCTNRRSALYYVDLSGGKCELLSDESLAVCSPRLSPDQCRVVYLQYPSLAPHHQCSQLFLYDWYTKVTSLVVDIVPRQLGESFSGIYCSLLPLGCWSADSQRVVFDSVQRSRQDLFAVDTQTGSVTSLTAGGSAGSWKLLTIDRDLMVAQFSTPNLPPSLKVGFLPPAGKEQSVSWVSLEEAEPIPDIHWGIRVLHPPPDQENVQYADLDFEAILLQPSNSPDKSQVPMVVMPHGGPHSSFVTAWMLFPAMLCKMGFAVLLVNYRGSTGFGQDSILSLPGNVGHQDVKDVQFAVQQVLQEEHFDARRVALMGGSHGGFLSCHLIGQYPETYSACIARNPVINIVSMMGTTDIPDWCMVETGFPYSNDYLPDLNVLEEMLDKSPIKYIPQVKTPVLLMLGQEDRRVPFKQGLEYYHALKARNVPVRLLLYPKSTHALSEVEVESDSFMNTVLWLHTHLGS
# [6] = biological target: T4, ABHD6 (Mus musculus, UniProt Q8R2Y0); assay: Gel-based competitive ABPP; assay type: biochemical
# T4 sequence (Q8R2Y0 1-336): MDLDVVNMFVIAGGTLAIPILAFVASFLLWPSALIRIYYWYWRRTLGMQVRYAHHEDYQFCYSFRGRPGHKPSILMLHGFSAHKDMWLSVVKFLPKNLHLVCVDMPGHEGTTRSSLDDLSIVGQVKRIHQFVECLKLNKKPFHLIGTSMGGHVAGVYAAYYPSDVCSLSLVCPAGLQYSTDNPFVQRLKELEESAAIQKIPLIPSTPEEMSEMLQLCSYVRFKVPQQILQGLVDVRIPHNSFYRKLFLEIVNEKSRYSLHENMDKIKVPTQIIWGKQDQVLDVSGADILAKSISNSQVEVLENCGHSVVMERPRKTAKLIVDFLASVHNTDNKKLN
# [7] = biological target: T5, CES3 (Mus musculus, UniProt Q8VCT4); assay: Gel-based competitive ABPP; assay type: biochemical
# T5 sequence (Q8VCT4 19-565): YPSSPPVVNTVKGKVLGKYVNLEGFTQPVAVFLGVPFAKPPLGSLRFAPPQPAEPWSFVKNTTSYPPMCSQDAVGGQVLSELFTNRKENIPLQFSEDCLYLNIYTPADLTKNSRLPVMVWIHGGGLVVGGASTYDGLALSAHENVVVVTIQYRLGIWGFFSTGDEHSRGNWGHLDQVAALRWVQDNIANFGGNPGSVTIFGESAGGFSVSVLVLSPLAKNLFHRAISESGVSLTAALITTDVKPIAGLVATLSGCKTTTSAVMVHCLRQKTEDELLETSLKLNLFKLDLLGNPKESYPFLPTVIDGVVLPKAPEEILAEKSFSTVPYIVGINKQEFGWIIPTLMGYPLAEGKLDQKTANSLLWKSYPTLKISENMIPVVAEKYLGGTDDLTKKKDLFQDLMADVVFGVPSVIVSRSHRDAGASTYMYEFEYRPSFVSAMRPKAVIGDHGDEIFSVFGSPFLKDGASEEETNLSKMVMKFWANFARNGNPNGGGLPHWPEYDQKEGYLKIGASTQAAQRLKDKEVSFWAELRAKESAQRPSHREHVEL
# [8] = biological target: T6, ABHD3 (Mus musculus, UniProt Q91ZH7); assay: Gel-based competitive ABPP; assay type: biochemical
# T6 sequence (Q91ZH7 1-411): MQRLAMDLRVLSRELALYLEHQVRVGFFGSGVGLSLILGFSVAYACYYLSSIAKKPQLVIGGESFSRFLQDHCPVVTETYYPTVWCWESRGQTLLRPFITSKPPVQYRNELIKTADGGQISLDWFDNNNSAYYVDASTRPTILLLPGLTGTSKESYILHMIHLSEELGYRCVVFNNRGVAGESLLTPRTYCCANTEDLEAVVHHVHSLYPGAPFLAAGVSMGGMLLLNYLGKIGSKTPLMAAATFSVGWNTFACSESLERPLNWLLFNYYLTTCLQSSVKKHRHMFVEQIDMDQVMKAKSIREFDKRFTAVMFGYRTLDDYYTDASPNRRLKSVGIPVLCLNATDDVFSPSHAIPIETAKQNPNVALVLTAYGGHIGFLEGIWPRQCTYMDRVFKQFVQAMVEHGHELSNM
# [9] = biological target: T7, KIAA1363 (Mus musculus, UniProt Q8BLF1); assay: Gel-based competitive ABPP; assay type: biochemical
# T7 sequence (Q8BLF1 1-408): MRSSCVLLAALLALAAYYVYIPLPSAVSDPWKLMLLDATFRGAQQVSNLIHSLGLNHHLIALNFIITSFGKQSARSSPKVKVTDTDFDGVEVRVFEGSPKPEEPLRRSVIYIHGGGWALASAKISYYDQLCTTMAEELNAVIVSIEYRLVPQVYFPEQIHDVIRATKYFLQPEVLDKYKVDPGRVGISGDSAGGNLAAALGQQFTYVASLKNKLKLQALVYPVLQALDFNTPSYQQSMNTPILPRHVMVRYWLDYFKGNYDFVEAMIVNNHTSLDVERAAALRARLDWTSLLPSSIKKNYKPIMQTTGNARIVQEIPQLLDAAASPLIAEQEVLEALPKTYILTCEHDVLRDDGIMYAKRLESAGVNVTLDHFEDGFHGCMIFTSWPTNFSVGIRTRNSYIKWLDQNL
# [10] = test system: C20:4 LPA hydrolytic activity of mouse brain proteomes; assay type: biochemical; settings: inhibitor 1 μM, 30 min, 37°C
smiles,measurement,setting,value
"CCOP(=S)(OCC)Oc1nc(Cl)c(Cl)cc1Cl [CPF, chlorpyrifos]","additional serine hydrolases not found in the brain (AADAC, CES1, CES1F, CES2, CES2B, CES2G, CES3, CES5, CES6, ES22, BChE) in peripheral tissues","[1]; CPF-treated mice, peripheral tissues",blocked
same,total number of metabolic serine hydrolases inhibited in vivo,"[1]; mice, brain and peripheral tissues, CPF 50 mg/kg ip, 4 h",twenty-one
"CCOP(=O)(OCC)Oc1nc(Cl)c(Cl)cc1Cl [CPO, chlorpyrifos-oxon]",IC50 compared to that of ACHE,[2],equivalent or lower
same,IC50 compared to that of ACHE,[3],equivalent or lower
same,IC50 compared to that of ACHE,[4],equivalent or lower
same,IC50 compared to that of ACHE,[5],equivalent or lower
same,IC50 compared to that of ACHE,[6],equivalent or lower
same,IC50 compared to that of ACHE,[7],comparable
same,IC50 compared to that of ACHE,[8],comparable
same,IC50 compared to that of ACHE,[9],comparable
O=C(Oc1ccc([N+](=O)[O-])cc1)N1CCC(C(O)(c2ccc3c(c2)OCO3)c2ccc3c(c2)OCO3)CC1 [JZL184],C20:4 LPA hydrolytic activity (C20:4 FFA release),[10],inhibits
O=C(Oc1ccc([N+](=O)[O-])cc1)N1CCN(Cc2cccc(Oc3ccccc3)c2)CC1 [JZL195],C20:4 LPA hydrolytic activity (C20:4 FFA release),[10],inhibits
